Measured values as given in patent US7981896B2 (Athersys, Inc., priority 2006, dated 2011).
pKi: −log10 of the molar value.

molecular target: T1, human histamine H3 receptor (Homo sapiens, UniProt Q9Y5N1); assay: Competition radioligand binding assay with [125I]iodoproxyfan on membranes of RAGE-H3 (HT1080-Gqαi5) cells expressing human H3 receptor; conditions: ~0.15 nM [125I]iodoproxyfan, 1.5 hrs at room temperature, head does not name the quantity (apparent Ki by Cheng-Prussof)
T1 construct: endogenous in cells; host or cells: HT1080-Gqαi5 RAGE clone (RAGE-H3), human fibrosarcoma line; integrated RAGE vector pFG8-HH3 supplies exon 1, the cell's own gene supplies the other exons
T1 sequence (Q9Y5N1 whole entry): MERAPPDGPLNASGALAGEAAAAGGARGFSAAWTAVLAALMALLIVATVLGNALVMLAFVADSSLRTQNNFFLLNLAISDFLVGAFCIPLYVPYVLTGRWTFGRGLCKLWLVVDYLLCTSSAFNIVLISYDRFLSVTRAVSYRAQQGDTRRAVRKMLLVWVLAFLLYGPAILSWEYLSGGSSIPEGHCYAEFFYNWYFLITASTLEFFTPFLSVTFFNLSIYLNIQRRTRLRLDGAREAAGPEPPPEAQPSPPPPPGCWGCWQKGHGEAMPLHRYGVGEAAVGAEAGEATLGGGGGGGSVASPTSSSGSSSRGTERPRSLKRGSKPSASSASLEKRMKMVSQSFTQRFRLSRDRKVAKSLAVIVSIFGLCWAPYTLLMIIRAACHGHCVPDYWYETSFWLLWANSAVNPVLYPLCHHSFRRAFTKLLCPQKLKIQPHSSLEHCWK
Procedure: Representative compounds of the present invention that were prepared by the procedures of Examples 1-83 were evaluated in binding assays against cells expressing human H3 receptor by the following procedure.
[^125I]iodoproxyfan (2000 Ci/mmol) was obtained from Amersham Bioscience (Piscataway, N.J.). All other chemicals were either from Sigma-Aldrich (St. Louis, Mo.) or Tocris Cookson Inc. (Ellisville, Mo.).
The human histamine H3 receptor was stably expressed in HT1080 cells containing the chimeric G-protein, Gq[…]i5 (Coward et al., Anal Biochem 1999; 270:242-8). HT1080-Gqαi5 cells were grown in alpha-modified MEM containing 10% fetal bovine serum and 7 μg/ml blasticidin at 37° C. in 5% CO2/95% atmosphere. Cells (4.8×10^9) were irradiated with 50 rads from a ^137Cs source and the pFG8-HH3 RAGE (Random Activation of Gene Expression; see Harrington et al., Nature Biotechnology. 2001; 19:440-45) vector was subsequently integrated into the cells via electroporation (250V, 600 μF, 50Ω). The RAGE vector pFG8-HH3 contained cDNA sequence coding for the first exon (83 amino acids) of human H3 receptor. After electroporation, cells were plated in T75 flasks and grown in alpha-modified MEM. The culture medium was replaced 48 hrs after electroporation with alpha-modified MEM, 10% fetal bovine serum, 500 μg/ml hygromycin B and 3 μg/ml puromycin. Medium was replaced every four days during cell expansion. To identify RAGE activated cells expressing the H3 receptor, pools of approximately 10,000 colonies (5×10^7-1.5×10^8 cells total) were screened by PCR for the desired gene product (using primers specific to the RAGE vector and exon 2 of the H3 receptor). […] Positive 100 cells/well pools were identified by PCR, confirmed by sequencing, and subsequently subcloned to 0.8 cells/well. Once clones expressing the H3 receptor were identified by PCR analysis, assays (FLIPR or radioligand binding) were performed to confirm that the activated gene produced functional protein. The protein expression in the initial clones obtained from the RAGE library was increased by growth in the presence of methotrexate. Since the integrated RAGE vector contains the DHFR gene, such treatment selects for cells that have amplified the genetic locus containing the RAGE insert. Subclones obtained after methotrexate amplification were tested for functional activity in FLIPR assays to identify the clone that was most suitable for HTS. The final HT1080-Gqαi5 RAGE clone (RAGE-H3) expressing the human histamine H3 receptor was grown in alpha-modified MEM containing 10% fetal bovine serum, 3 μg/ml puromycin, 500 μg/ml hygromycin B, 3.2 μM methotrexate at 37° C. in 5% CO2/95% atmosphere.
RAGE-H3 cells (10^9) were washed twice with cold PBS, scraped off the plates, and centrifuged at 1000×g for 5 minutes. Cells were resuspended in ice-cold 10 mM Tris HCl, pH 7.4, containing 5 mM EDTA and protease inhibitor cocktail tablets (Roche Molecular Biochemicals). After incubating on ice for 10 min, the cells were homogenized with a dounce homogenizer or a polytron tissue grinder, and centrifuged at 1000×g for 10 min at 4° C. The resulting supernatant was centrifuged at 32,000×g for 30 min at 4° C. The membrane pellets were resuspended in 50 mM Tris HCl, pH 7.4, and stored at −80° C. until use. Protein concentration was determined by the Bradford method (Bio-Rad Laboratories, CA).
Binding assays were carried out in 96-well polypropylene plates in 50 mM Tris HCl, pH 7.4, containing 1 mM EDTA. Reaction mixtures contained 100 μl of membrane suspension, 50 μl of 4% DMSO, and 50 μl of increasing amounts of [^125I]iodoproxyfan (final concentration 0.0005-1.8 nM for human H3 receptor saturation binding assay). Nonspecific binding was defined by adding 10 μM clobenpropit to the reaction mixtures. […]

| Structure (SMILES) | pKi |
| --- | --- |
| Cc1nn(-c2ccc(OCCCN3CCCC3C)cc2)c2c1sc1ccccc12 (centres unmarked) [Example 65, 3-Methyl-1-{4-[3-(2-methyl-pyrrolidin-1-yl)-propoxy]-phenyl}-1H-benzo[4,5]thieno[3,2-c]pyrazole] | > 8.00 |
| CC1CCCN1CCCOc1ccc(-n2nc(C(F)(F)F)c3oc4ccccc4c32)cc1 (centres unmarked) [Example 67, 3-{4-[3-(2-Methyl-pyrrolidin-1-yl)-propoxy]-phenyl}-1-trifluoromethyl-3H-8-oxa-2,3-diaza-cyclopenta[a]indene] | > 7.00 |
| CN(C)C1CCN(CCCOc2ccc(-n3nc(C(F)(F)F)c4oc5ccccc5c43)cc2)C1 (centres unmarked) [Example 68, Dimethyl-(1-{3-[4-(1-trifluoromethyl-8-oxa-2,3-diaza-cyclopenta[a]inden-3-yl)-phenoxy]-propyl}-pyrrolidin-3-yl)-amine] | > 6.00 |
| Cc1cc(C(=O)NC2CCCCC2)n(-c2ccc(OCCCN3CCOCC3)cc2)n1 [Example 76, 5-Methyl-2-[4-(3-morpholin-4-ylpropoxy)phenyl]-2H-pyrazole-3-carboxylic acid cyclohexylamide] | > 8.00 |
| Cc1cc(C(=O)NC2CCCCC2)n(-c2ccc(OCCC3CCCN3C)cc2)n1 (centres unmarked) [Example 77, 5-Methyl-2-{4-[2-(1-methylpyrrolidin-2-yl)ethoxy]phenyl}-2H-pyrazole-3-carboxylic acid cyclohexylamide] | > 6.00 |
| Cc1cc(C(=O)N2CCCC2)n(-c2ccc(OCCCN3CCCC3)cc2)n1 [Example 78, {5-Methyl-2-[4-(3-pyrrolidin-1-ylpropoxy)phenyl]-2H-pyrazol-3-yl}pyrrolidin-1-ylmethanone] | > 8.00 |
| Cc1cc(C(=O)NC2CCC2)n(-c2ccc(OCCCN3CCCC3)cc2)n1 [Example 80, 5-Methyl-2-[4-(3-pyrrolidin-1-ylpropoxy)phenyl]-2H-pyrazole-3-carboxylic acid cyclobutylamide] | > 9.00 |
| Cc1cc(C(=O)Nc2ccccc2)n(-c2ccc(OCCCN3CCCC3)cc2)n1 [Example 81, 5-Methyl-2-[4-(3-pyrrolidin-1-ylpropoxy)phenyl]-2H-pyrazole-3-carboxylic acid phenylamide] | > 9.00 |
| Cc1cc(C(=O)NC2CCCCC2)n(-c2ccc(OCC3CCCN4CCCCC34)cc2)n1 (centres unmarked) [Example 82, 5-Methyl-2-[4-(octahydroquinolizin-1-ylmethoxy)phenyl]-2H-pyrazole-3-carboxylic acid cyclohexylamide] | < 5.00 |
| Cc1cc(C(=O)NC2CCCCC2)nn1-c1ccc(OCCCN2CCCC2)cc1 [Example 83, 5-Methyl-1-[4-(3-pyrrolidin-1-ylpropoxy)phenyl]-1H-pyrazole-3-carboxylic acid cyclohexylamide] | > 8.00 |

Other lines, results leading:

| pKi | Structure (SMILES) |
| --- | --- |
| > 9.00 | Cc1cc(C(=O)NC2CCCCC2)n(-c2ccc(OCCCN3CCCC3)cc2)n1 [Example 73, 5-Methyl-2-[4-(3-pyrrolidin-1-yl-propoxy)-phenyl]-2H-pyrazole-3-carboxylic acid cyclohexylamide] |
| > 9.00 | Cc1cc(C(=O)NC2CCCCC2)n(-c2ccc(OCCCN3CCC[C@H]3C)cc2)n1 [Example 74, 5-Methyl-2-{4-[3-(2R-methylpyrrolidin-1-yl)propoxy]phenyl}-2H-pyrazole-3-carboxylic acid cyclohexylamide] |
| > 9.00 | Cc1cc(C(=O)NC2CCCCC2)n(-c2ccc(OCCCN3CCCCC3)cc2)n1 [Example 75, 5-Methyl-2-[4-(3-piperidin-1-ylpropoxy)phenyl]-2H-pyrazole-3-carboxylic acid cyclohexylamide] |
| > 9.00 | Cc1cc(C(=O)NCC2CCCCC2)n(-c2ccc(OCCCN3CCCC3)cc2)n1 [Example 79, 5-Methyl-2-[4-(3-pyrrolidin-1-ylpropoxy)phenyl]-2H-pyrazole-3-carboxylic acid cyclohexylmethylamide] |
